Values after ≈ are worked out from the molar mass of the structure shown. Each block holds one molecule with its values, some of them ahead of it.
Experiments:
[1] = Flow ability test (bulk density, tap density, Carr index); format: physicochemical
Method: The tap density was measured by SVM203 Tapped Density Meter.
Bulk density and tap density of bulk drugs with different crystal forms and particle sizes were tested, and Carr index was calculated.
Therefore, compared with the crystal form A, the crystal form Q4 has obvious advantages in terms of powder mixing uniformity of bulk drugs and the preparation of solid preparations.

[2] = Equilibrium solubility in four media with XRPD of the solids; format: physicochemical; conditions: for solubility at 24 h: 37 °C, thermodynamic from solid; for solubility at 24 h / Solubility: 200 rpm; for Crystal transformation before and after the solubility test: four media, XRPD; for Crystal transformation before and after the solubility test / Solubility: 37° C.; for solubility at 24 h / Crystal transformation before and after the solubility test / Solubility: 24 h
Method: At 37° C., appropriate amounts of the crystal form Q4 and crystal form A of the compound of Formula (I) were taken and dispersed in water, artificial gastric fluid (SGF, Simulated Gastric Fluid), artificial intestinal fluid under fed state (FeSSIF, Fed State Simulated Intestinal Fluid) and artificial intestinal fluid under fasted state (FaSSIF, Fasted State Simulated Intestinal Fluid) respectively to prepare suspension, and after equilibration at 200 rpm for 24 h, the content (mg/mL) of the sample in the solution were tested by HPLC and the samples in the solution were tested by XRPD, respectively.

[3] = Particle size analysis (PSA); format: physicochemical
Method: Malvern's laser scattering particle size distribution analyzer was used to analyze the particle size of solid powder. An appropriate amount of solid powder was taken into a sampler, the samples were tested according to the parameters listed in Table 5, and the data was analyzed by Mastersizer-v3.60.

[4] = disclosed in reference CN110407877, 90% RH; cited from earlier work
[5] = Stability test under high temperature, high humidity and light (HPLC purity, XRPD); format: physicochemical; conditions: for Purity: HPLC; for Crystal form: XRPD
Method: Determination of HPLC is performed by Waters e2695 high performance liquid chromatograph to analyze the samples.
The stability of the crystal form Q4 of the compound of Formula (I) under high temperature, high humidity and light conditions was investigated. After placing for 5 days and 10 days under specific conditions, purity was tested by HPLC, and XRPD was performed.

[6] = Hydroscopicity experiment (DVS water sorption/desorption); format: physicochemical
From the text: Description of hydroscopicity characteristics and definition of hygroscopic weight gain (Chinese Pharmacopoeia 2020 Edition, General Chapter 9103, Guidelines for Hydroscopicity Trials for Pharmaceuticals): • Deliquescence: absorb enough water to form liquid; • Extremely hygroscopic: the hygroscopic weight gain is not less than 15.0%; • Hygroscopic: hygroscopic weight gain is less than 15.0% but not less than 2.0%; • Mild hygroscopic: hygroscopic weight gain is less than 2.0% but not less than 0.2%; • Non-or almost non-hygroscopic: the hygroscopic weight gain is less than 0.2%.
The hydroscopicity of the samples was determined using a DVS Intrinsic dynamic vapor sorption analyzer. The samples were placed in a peeled sample basket, the instrument weighed automatically, and the samples were analyzed according to the parameters in Table 4.
According to “Guidelines for Hydroscopicity Trials for Pharmaceuticals” in Chinese Pharmacopoeia 2020 Edition, the data of water sorption/desorption of the crystal form Q4 of the compound of Formula (I) were tested.

[7] = bulk drug D90 69.2 μm (Q4), 62 μm (A)
[8] = bulk drugs of substantially the same particle size used in flow ability test

Bulk density [1, 7]: 0.48 g/mL | Carr index: (tap density-bulk density)/tap density [1, 7]: 31.43% | Evaluation (flow ability) [1, 7]: poor flow | Tap density [1, 7]: 0.70 g/mL | solubility at 24 h ([2]; fasted state simulated intestinal fluid (FaSSIF), pH 6.5, fassif, FaSSIF (pH 6.5)): 4560 µg/mL (≈ 8.01 mM) | solubility at 24 h ([2]; fed state simulated intestinal fluid (FeSSIF), pH 5, fessif, FeSSIF (pH 5.0)): 23600 µg/mL (≈ 41.5 mM) | solubility at 24 h ([2]; simulated gastric fluid (SGF), pH 1.8, simulated gastric fluid, SGF (pH 1.8)): 9300 µg/mL (≈ 16.3 mM) | solubility at 24 h ([2]; water): 40 µg/mL (≈ 0.0703 mM) | Particle size of bulk D90 [3, 8]: 62 μm
SMILES: COc1cc(N2CCC3(CCN(C)CC3)CC2)ccc1Nc1ncc(Cl)c(Nc2ccccc2P(C)(C)=O)n1 [Crystal form A, reference compound]
Crystal transformation before and after the solubility test [2]: do not transform before and after the test | Weight gain under 90% RH humidity condition [4]: 0.17%

SMILES: COc1cc(N2CCC3(CCN(C)CC3)CC2)ccc1Nc1ncc(Cl)c(Nc2ccccc2P(C)(C)=O)n1 [Crystal form B]
Weight gain under 90% RH humidity condition [4]: 0.70%

SMILES: COc1cc(N2CCC3(CCN(C)CC3)CC2)ccc1Nc1ncc(Cl)c(Nc2ccccc2P(C)(C)=O)n1 [Crystal form C]
Weight gain under 90% RH humidity condition [4]: 0.62%

Bulk density [1, 7]: 0.28 g/mL | Carr index: (tap density-bulk density)/tap density [1, 7]: 24.32% | Evaluation (flow ability) [1, 7]: fair flow | Tap density [1, 7]: 0.37 g/mL | Bulk density ([1]; bulk drug D90 145.2 μm): 0.42 g/mL | Carr index: (tap density-bulk density)/tap density ([1]; bulk drug D90 145.2 μm): 17.65% | Evaluation (flow ability) ([1]; bulk drug D90 145.2 μm): good or medium (16 to 20%) | Tap density ([1]; bulk drug D90 145.2 μm): 0.51 g/mL | Related substances: Impurity LG RRT = 1.98 ([5]; 40° C.-5 D): 0.04% | Related substances: Impurity LO RRT = 0.89 ([5]; 40° C.-5 D): 0.01% | Related substances: Impurity LP RRT = 1.16 ([5]; 40° C.-5 D): 0.02% | Related substances: Impurity QA RRT = 0.95 ([5]; 40° C.-5 D): 0.01% | Purity ([5]; 40° C.-5 D): 99.88% | Crystal form ([5]; 40° C.-5 D): form Q4 | Related substances: Impurity LG RRT = 1.98 ([5]; 40° C.-10 D): 0.04% | Related substances: Impurity LO RRT = 0.89 ([5]; 40° C.-10 D): 0.01% | Related substances: Impurity LP RRT = 1.16 ([5]; 40° C.-10 D): 0.03% | Related substances: Impurity QA RRT = 0.95 ([5]; 40° C.-10 D): 0.01% | Purity ([5]; 40° C.-10 D): 99.87% | Crystal form ([5]; 40° C.-10 D): form Q4 | Related substances: Impurity LG RRT = 1.98 ([5]; 60° C.-5 D): 0.04% | Related substances: Impurity LO RRT = 0.89 ([5]; 60° C.-5 D): 0.01% | Related substances: Impurity LP RRT = 1.16 ([5]; 60° C.-5 D): 0.02% | Related substances: Impurity QA RRT = 0.95 ([5]; 60° C.-5 D): 0.01% | Purity ([5]; 60° C.-5 D): 99.86% | Crystal form ([5]; 60° C.-5 D): form Q4 | Related substances: Impurity LG RRT = 1.98 ([5]; 60° C.-10 D): 0.04% | Related substances: Impurity LO RRT = 0.89 ([5]; 60° C.-10 D): 0.01% | Related substances: Impurity LP RRT = 1.16 ([5]; 60° C.-10 D): 0.02% | Related substances: Impurity QA RRT = 0.95 ([5]; 60° C.-10 D): 0.01% | Purity ([5]; 60° C.-10 D): 99.88% | Crystal form ([5]; 60° C.-10 D): form Q4 | Related substances: Impurity LG RRT = 1.98 ([5]; 75RH-5 D): 0.04% | Related substances: Impurity LO RRT = 0.89 ([5]; 75RH-5 D): 0.01% | Related substances: Impurity LP RRT = 1.16 ([5]; 75RH-5 D): 0.01% | Related substances: Impurity QA RRT = 0.95 ([5]; 75RH-5 D): 0.01% | Purity ([5]; 75RH-5 D): 99.88% | Crystal form ([5]; 75RH-5 D): form Q4 | Related substances: Impurity LG RRT = 1.98 ([5]; 75RH-10 D): 0.04% | Related substances: Impurity LO RRT = 0.89 ([5]; 75RH-10 D): 0.01% | Related substances: Impurity LP RRT = 1.16 ([5]; 75RH-10 D): 0.02% | Related substances: Impurity QA RRT = 0.95 ([5]; 75RH-10 D): 0.01% | Purity ([5]; 75RH-10 D): 99.88% | Crystal form ([5]; 75RH-10 D): form Q4 | Related substances: Impurity LG RRT = 1.98 ([5]; 90RH-5 D): 0.04% | Related substances: Impurity LO RRT = 0.89 ([5]; 90RH-5 D): 0.02% | Related substances: Impurity LP RRT = 1.16 ([5]; 90RH-5 D): 0.01% | Related substances: Impurity QA RRT = 0.95 ([5]; 90RH-5 D): 0.01% | Purity ([5]; 90RH-5 D): 99.87% | Crystal form ([5]; 90RH-5 D): form Q4 | Related substances: Impurity LG RRT = 1.98 ([5]; 90RH-10 D): 0.04% | Related substances: Impurity LO RRT = 0.89 ([5]; 90RH-10 D): 0.01% | Related substances: Impurity LP RRT = 1.16 ([5]; 90RH-10 D): 0.03% | Related substances: Impurity QA RRT = 0.95 ([5]; 90RH-10 D): 0.01% | Purity ([5]; 90RH-10 D): 99.83% | Crystal form ([5]; 90RH-10 D): form Q4 | Related substances: Impurity LG RRT = 1.98 ([5]; Light-5 D): 0.04% | Related substances: Impurity LO RRT = 0.89 ([5]; Light-5 D): 0.03% | Related substances: Impurity LP RRT = 1.16 ([5]; Light-5 D): 0.02% | Related substances: Impurity QA RRT = 0.95 ([5]; Light-5 D): 0.01% | Purity ([5]; Light-5 D): 99.82% | Crystal form ([5]; Light-5 D): form Q4 | Related substances: Impurity LG RRT = 1.98 ([5]; Light-10 D): 0.03% | Related substances: Impurity LO RRT = 0.89 ([5]; Light-10 D): 0.03% | Related substances: Impurity LP RRT = 1.16 ([5]; Light-10 D): 0.02% | Related substances: Impurity QA RRT = 0.95 ([5]; Light-10 D): 0.01% | Purity ([5]; Light-10 D): 99.86% | Crystal form ([5]; Light-10 D): form Q4 | Related substances: Impurity LG RRT = 1.98 ([5]; Start): 0.03% | Related substances: Impurity LO RRT = 0.89 ([5]; Start): 0.01% | Related substances: Impurity LP RRT = 1.16 ([5]; Start): 0.02% | Related substances: Impurity QA RRT = 0.95 ([5]; Start): 0.01% | Purity ([5]; Start): 99.90% | Crystal form ([5]; Start): form Q4 | Degradation / stability ([5]; high temperature, high humidity and light conditions, 5 and 10 days): no obvious degradation | Evaluation of hydroscopicity ([6]; Chinese Pharmacopoeia 2020 criteria, weight gain at 80% RH): non- or almost non-hygroscopic | 80% RH weight gain ([6]; DVS, 80% RH): 0.10% | 90% RH weight gain ([6]; DVS, 90% RH): 0.12% | Solubility compared with the crystal form A ([2]; FaSSIF): better than that of the crystal form A | Solubility ([2]; FaSSIF (pH 6.5)): 5.75 mg/mL (≈ 10.1 mM) | Solubility ([2]; FeSSIF (pH 5.0)): 23.56 mg/mL (≈ 41.4 mM) | Solubility ([2]; SGF (pH 1.8)): 9.28 mg/mL (≈ 16.3 mM) | Solubility ([2]; Water): 0.04 mg/mL (≈ 0.0703 mM) | D10 ([3]; PSA, Example 3 batch): 10.8 μm | D50 ([3]; PSA, Example 3 batch): 62.6 μm | D90 ([3]; PSA, Example 3 batch): 145.2 μm | Particle size of bulk D90 [3, 8]: 69.2 μm | Particle size of bulk D90 ([3]; larger particle size Q4 bulk drug used in flow ability test): 145.2 μm
SMILES: COc1cc(N2CCC3(CCN(C)CC3)CC2)ccc1Nc1ncc(Cl)c(Nc2ccccc2P(C)(C)=O)n1 [Crystal form Q4]
Flow ability compared with the crystal form A ([1]; substantially the same particle size): better flow ability compared with the crystal form A | Crystal transformation, XRPD before and after DVS test ([6]; before and after DVS test): no crystal transformation before and after the test | Hydroscopicity compared with the crystal forms A, B and C ([6]; hygroscopic weight gain comparison): less hydroscopicity than the crystal forms A, B and C | Crystal transformation before and after the solubility test [2]: do not transform before and after the test
